Data: patent US11542316B2, “S-Arrestin peptides and therapeutic uses thereof” (APITOPE INTERNATIONAL NV, priority 2017, dated 2023)
Entries after “also recorded” stand apart in the source; their conditions may differ. Ends that are not written are not given here.

molecular target: T1, MHC II molecules present on dendritic cells (DC) (Homo sapiens, UniProt P01903+P01911, A100K/A102G/A103R/F55Y/I96L/K41T/P40S/Q125H/Q178H/Q39Y/R42S/S66N/T106N/T262R/W38E/Y61H); assay: In vivo presentation experiment, DR3tg mice; settings: 100 μg peptide s.c., CD11c+ cells harvested after 2 hours, co-culture 48 hours
T1 construct: from tissue; host or cells: CD11c+ dendritic cells from spleens of DR3tg mice (genomic HLA-DRA and DRB1*0301 transgenes, no mouse MHC class II)
T1 sequence (P01903 26-254): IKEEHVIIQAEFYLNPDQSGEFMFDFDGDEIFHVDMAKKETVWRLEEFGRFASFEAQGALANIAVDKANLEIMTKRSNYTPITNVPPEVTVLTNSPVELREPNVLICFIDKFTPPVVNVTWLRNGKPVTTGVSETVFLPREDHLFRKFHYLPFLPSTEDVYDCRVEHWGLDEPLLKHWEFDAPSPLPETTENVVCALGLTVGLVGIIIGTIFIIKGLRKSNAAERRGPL
T1 sequence (P01911 30-266 with the stated changes): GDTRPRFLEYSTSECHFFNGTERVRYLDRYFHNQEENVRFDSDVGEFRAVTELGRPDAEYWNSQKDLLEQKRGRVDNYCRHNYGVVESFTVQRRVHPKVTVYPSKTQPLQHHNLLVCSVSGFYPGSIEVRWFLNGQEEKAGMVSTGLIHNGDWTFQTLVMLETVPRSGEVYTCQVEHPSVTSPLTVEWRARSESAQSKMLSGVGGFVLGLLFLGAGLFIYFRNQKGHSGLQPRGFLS
Text: FIG. 14: In vivo presentation protocol. Mice are immunized with peptide/CFA and a T cell line is established. For this, ten days after immunization the LN and spleens are harvested and cultured with different concentrations of peptide; 2×10^6 cells/ml APC+1×10^6 cells/ml CD4^+ cells per well. At day 7 the cells are re-stimulated with fresh APC and the same concentrations of peptide. After 14 to 21 days, CD4^+ cells are isolated from these cultures by magnetic bead isolation. These CD4^+ cells are co-cultured with CD11c^+ (dendritic) cells isolated by magnetic bead isolation from spleens of mice s.c. injected with peptide 2 hours before. Control mice receive a s.c. injection of PBS. After 48 hours, supernatant is collected and cytokine response (IFN-γ) is measured. LN, lymph nodes; APC, Antigen presenting cell; s.c. subcutaneous.
FIG. 15: In vivo presentation of HIP-115 nested peptides in DR3 mice. DR3 mice were immunized with HIP-115/CFA and a T cell line was established. For this, ten days after immunization the LN and spleens were harvested and cultured with different concentrations of peptide (0.1-1-2.5 and 5 μg/ml); 2×10^6 cells/ml APC+1×10^6 cells/ml CD4^+ cells per well. At day 7 the cells were re-stimulated with fresh APC and the same concentrations of peptide. After 14 days, CD4^+ cells were isolated from these cultures by magnetic bead isolation. These CD4^+ cells were co-cultured with CD11c (dendritic) cells isolated by magnetic bead isolation from spleens of DR3 mice s.c. injected with peptides HIP-115NE3, HIP-115NE3-KKK or PBS 2 hours before. After 48 hours, supernatant was collected and IFN-γ production was measured by ELISA. Data are presented as the mean IFN-γ concentration±SEM (One-way ANOVA with Dunn's multiple comparison, * p<0.05, ** p<0.01). LN, lymph nodes; APC, Antigen presenting cell; s.c. subcutaneous.
FIG. 16: In vivo presentation of HIP-24 nested peptides in DR3 mice. DR3 mice were immunized with HIP-241125+HIP-24DG/CFA and a T cell line was established. For this, ten days after immunization the LN and spleens were harvested and cultured with different concentrations of peptide (0.3-1.2-3 and 6 μg/ml); 2×10^6 cells/ml APC+1×10^6 cells/ml CD4^+ cells per well. At day 7 the cells were re-stimulated with fresh APC and the same concentrations of peptide. After 14 days, CD4^+ cells were isolated from these cultures by magnetic bead isolation. […] After 48 hours, supernatant was collected and IFN-γ production was measured by ELISA. […]
FIG. 18: In vivo presentation of HIP-17GN nested peptides in DR3 mice. […] After 48 hours, supernatant was collected and IFN-γ production was measured by ELISA. […]

| Substance | picked up and presented by MHC II on dendritic cells to peptide-specific T cells (IFN-γ production) |
| --- | --- |
| KKKLTFRRDLYFSRVQVYKKK-NH2 [HIP-17J-KKK] | presented by DC to T cells; also recorded: A certain degree of activation |
| KKKVIFKKISRDKSVTIYLGKKK-NH2 [HIP-115NE3-KKK] | bound to the MHC II on DC in situ and presented to peptide-specific T cells |
| LPLLANNRERRGIA-NH2 [HIP-24HM3, LPLLANNRERRGIA] | presented by DC to T cells |
| VIFKKISRDKSVTIYLG-NH2 [HIP-115NE3, VIFKKISRDKSVTIYLG] | not able to cause this activation |
